In PubChem BioAssay AID488958 (The Scripps Research Institute Molecular Screening Center, 2010):
Active and inactive are the calls of the source. No rule for the calls is given here.

Target: 3C-like protease (Infectious bronchitis virus, as filed; assay for SARS-CoV 3CLpro)
Experiment: SARS 3CLpro protease inhibition IC50 – biochemical, fluorescence, dose response, late-stage follow-up (AID 488958)
Conditions: recombinant 3CLpro, fluorogenic peptide cleavage

## CC(C)(C)NC(=O)C(c1cccnc1)N(C(=O)c1ccc(Cl)o1)c1ccc(C(C)(C)C)cc1 (stereo unspecified)
  IC50: 5.2 µM

## CC(=O)Nc1ccc(N(C(=O)Cn2nnc3ccccc32)C(C(=O)NC(C)(C)C)c2cccc(F)c2)cc1 (stereo unspecified)
  IC50: 6.3 µM

## CCC(C)c1ccc(N(C(=O)c2ccco2)[C@H](C(=O)NC(C)(C)C)c2cccnc2)cc1 (stereo partly specified)
  IC50: 2.3 µM

## CC(=O)Nc1ccc(N(C(=O)Cn2nnc3ccccc32)C(C(=O)NCc2ccccc2)c2cccc(F)c2)cc1 (stereo unspecified)
  IC50: 2.9 µM

## CC(C)(C)NC(=O)C(c1cncnc1)N(C(=O)c1cnc[nH]1)c1ccc(C(C)(C)C)cc1 (stereo unspecified)
  IC50: inactive

## CC(C)(C)NC(=O)C(c1cccnc1)N(C(=O)c1ncco1)c1ccc(C(C)(C)C)cc1 (stereo unspecified)
  IC50: inactive
